Measured values: the NIST ThermoML archive (doi:10.1021/je900615b)
Where “and” joins values, the source holds several entries; their conditions need not be identical. Equal values may be shown once.

Conditions: Liquid, Hot wire method

CCOCC [diethyl ether]
Conditions	thermal conductivity [W/m/K]
234.64 K, 100 kPa	0.1453
234.88 K, 20100 kPa	0.1543
234.9 K, 30300 kPa	0.1565
234.92 K, 20100 kPa	0.1542
235.03 K, 100 kPa	0.1461
235.09 K, 20200 kPa	0.1538
235.1 K, 10100 kPa	0.1496
235.17 K, 5100 kPa	0.1478
235.22 K, 30200 kPa	0.1563
235.4 K, 30400 kPa	0.1559
235.48 K, 10100 kPa	0.1499
235.53 K, 5100 kPa	0.1479
235.89 K, 10100 kPa	0.15
235.93 K, 5100 kPa	0.1477
235.94 K, 100 kPa	0.1456
254.64 K, 20200 kPa	0.1484
254.74 K, 30000 kPa	0.1514
254.75 K, 5200 kPa	0.1408
254.86 K, 30000 kPa	0.1512
254.91 K, 19700 kPa	0.1477
254.95 K, 100 kPa	0.1386
254.98 K, 10100 kPa	0.1427
254.99 K, 4900 kPa	0.1411
255.26 K, 100 kPa	0.1386
255.28 K, 29900 kPa	0.1512
255.34 K, 20200 kPa	0.1475
255.37 K, 5100 kPa	0.1407
255.38 K, 10200 kPa	0.1432
255.69 K, 10000 kPa	0.1427
255.7 K, 100 kPa	0.1386
274.69 K, 100 kPa	0.1315
274.7 K, 20100 kPa	0.1409
274.71 K, 5000 kPa	0.1338
274.71 K, 10000 kPa	0.1363
274.92 K, 30000 kPa	0.1447
274.93 K, 20000 kPa	0.1409
274.96 K, 100 kPa	0.1319
274.97 K, 10000 kPa	0.1362
275.21 K, 30000 kPa	0.145
275.37 K, 100 kPa	0.1317
275.38 K, 5000 kPa	0.1339
275.56 K, 10100 kPa	0.1364
275.64 K, 30000 kPa	0.145
275.7 K, 20000 kPa	0.1407
275.79 K, 5000 kPa	0.134
294.61 K, 20200 kPa	0.1366
294.79 K, 10100 kPa	0.1311
294.81 K, 5100 kPa	0.128
294.83 K, 29900 kPa	0.1419
294.93 K, 20000 kPa	0.1366
295.04 K, 5000 kPa	0.128
295.06 K, 10100 kPa	0.1309
295.08 K, 29700 kPa	0.1416
295.25 K, 20000 kPa	0.1365
295.26 K, 10000 kPa	0.1308
295.31 K, 100 kPa	0.1248
295.43 K, 5100 kPa	0.1277
295.53 K, 29900 kPa	0.1419
295.6 K, 100 kPa	0.1252
296.02 K, 100 kPa	0.125
314.33 K, 5100 kPa	0.1201
314.44 K, 5300 kPa	0.1205
314.55 K, 30100 kPa	0.1357
314.6 K, 10000 kPa	0.1231
314.95 K, 10100 kPa	0.1236
314.95 K, 20100 kPa	0.1291
314.95 K, 30100 kPa	0.1361
315.01 K, 200 kPa	0.1187
315.13 K, 200 kPa	0.1182
315.21 K, 5200 kPa	0.1202
315.39 K, 30100 kPa	0.1356
315.5 K, 200 kPa	0.1182
315.52 K, 10100 kPa	0.1232
315.56 K, 20200 kPa	0.1289
315.91 K, 20100 kPa	0.1287
335.02 K, 5100 kPa	0.1127
335.13 K, 20300 kPa	0.1222
335.21 K, 5100 kPa	0.1127
335.28 K, 200 kPa	0.1093
335.3 K, 30200 kPa	0.1275
335.33 K, 10200 kPa	0.1159
335.33 K, 19900 kPa	0.1217
335.63 K, 5200 kPa	0.1126
335.71 K, 20400 kPa	0.1224
335.72 K, 10100 kPa	0.1162
335.72 K, 30000 kPa	0.1271
335.78 K, 200 kPa	0.1091
336.08 K, 200 kPa	0.1092
336.13 K, 30200 kPa	0.1269
336.17 K, 10100 kPa	0.1159
354.59 K, 30000 kPa	0.1208
354.75 K, 5000 kPa	0.1044
355.05 K, 10000 kPa	0.1084
355.05 K, 30000 kPa	0.1206
355.08 K, 500 kPa	0.1001
355.18 K, 20000 kPa	0.115
355.32 K, 10100 kPa	0.1082
355.37 K, 5000 kPa	0.1048
355.39 K, 30000 kPa	0.1204
355.52 K, 500 kPa	0.1001
355.52 K, 20000 kPa	0.1148
355.74 K, 5000 kPa	0.1045
355.8 K, 10000 kPa	0.1079
355.82 K, 500 kPa	0.1002
356.03 K, 20000 kPa	0.1147
374.62 K, 10000 kPa	0.1004
374.7 K, 5200 kPa	0.0974
374.92 K, 30000 kPa	0.1132
375.01 K, 29700 kPa	0.1131
375.06 K, 10000 kPa	0.1011
375.22 K, 20000 kPa	0.1081
375.25 K, 5100 kPa	0.0973
375.4 K, 5000 kPa	0.0973
375.46 K, 10000 kPa	0.1008
375.51 K, 29800 kPa	0.1135
375.62 K, 20000 kPa	0.1082
375.72 K, 700 kPa	0.0926
376.18 K, 700 kPa	0.0925
376.28 K, 20000 kPa	0.1076
376.8 K, 700 kPa	0.0923

CC(C)OC(C)C [diisopropyl ether]
Conditions	thermal conductivity
235.46 K, 100 kPa	0.1259 W/m/K
235.54 K, 100 kPa	0.1258 W/m/K
236.06 K, 100 kPa	0.1259 W/m/K
236.15 K, 30600 kPa	0.1369 W/m/K
236.25 K, 5000 kPa	0.128 W/m/K
236.29 K, 10100 kPa	0.13 W/m/K
236.33 K, 5000 kPa	0.1275 W/m/K
236.44 K, 20200 kPa	0.1331 W/m/K
236.45 K, 20300 kPa	0.1337 W/m/K
236.53 K, 29900 kPa	0.1364 W/m/K
236.67 K, 5000 kPa	0.1277 W/m/K
236.7 K, 10200 kPa	0.1305 W/m/K
236.8 K, 20300 kPa	0.1337 W/m/K
236.92 K, 30000 kPa	0.1363 W/m/K
237.15 K, 10200 kPa	0.1302 W/m/K
254.4 K, 20400 kPa	0.1276 W/m/K
254.47 K, 30400 kPa	0.1314 W/m/K
254.66 K, 5100 kPa	0.122 W/m/K
254.73 K, 100 kPa	0.1201 W/m/K
254.74 K, 10000 kPa	0.1238 W/m/K
254.76 K, 29500 kPa	0.1312 W/m/K
254.86 K, 10200 kPa	0.1241 W/m/K
254.89 K, 5300 kPa	0.1223 W/m/K
254.9 K, 20100 kPa	0.128 W/m/K
255.08 K, 100 kPa	0.1205 W/m/K
255.13 K, 10100 kPa	0.1236 W/m/K
255.14 K, 5100 kPa	0.1221 W/m/K
255.26 K, 100 kPa	0.1199 W/m/K
255.58 K, 30100 kPa	0.1315 W/m/K
255.61 K, 19900 kPa	0.1285 W/m/K
274.6 K, 30000 kPa	0.1274 W/m/K
274.72 K, 10100 kPa	0.1177 W/m/K
274.86 K, 29900 kPa	0.1269 W/m/K
274.89 K, 20000 kPa	0.122 W/m/K
274.95 K, 5100 kPa	0.1154 W/m/K
275 K, 100 kPa	0.1129 W/m/K
275.02 K, 10000 kPa	0.1178 W/m/K
275.17 K, 30100 kPa	0.1271 W/m/K
275.19 K, 5000 kPa	0.115 W/m/K
275.25 K, 10000 kPa	0.1175 W/m/K
275.3 K, 100 kPa	0.1135 W/m/K
275.51 K, 20100 kPa	0.1218 W/m/K
275.6 K, 5000 kPa	0.1152 W/m/K
275.91 K, 100 kPa	0.1131 W/m/K
276.04 K, 20100 kPa	0.1219 W/m/K
294.58 K, 100 kPa	0.1073 W/m/K
294.64 K, 30100 kPa	0.1197 W/m/K
294.65 K, 10000 kPa	0.1118 W/m/K
294.95 K, 5000 kPa	0.1089 W/m/K
294.98 K, 10000 kPa	0.1115 W/m/K
295.03 K, 100 kPa	0.1071 W/m/K
295.13 K, 20100 kPa	0.1161 W/m/K
295.14 K, 30100 kPa	0.1199 W/m/K
295.27 K, 30000 kPa	0.1198 W/m/K
295.32 K, 10100 kPa	0.1111 W/m/K
295.35 K, 5000 kPa	0.1085 W/m/K
295.6 K, 20100 kPa	0.116 W/m/K
295.7 K, 100 kPa	0.1066 W/m/K
295.82 K, 5000 kPa	0.1087 W/m/K
296.18 K, 20100 kPa	0.1159 W/m/K
314.96 K, 30000 kPa	0.1145 W/m/K
315.03 K, 5000 kPa	0.1027 W/m/K
315.07 K, 20000 kPa	0.1105 W/m/K
315.13 K, 100 kPa	0.0993 W/m/K
315.24 K, 30000 kPa	0.1144 W/m/K
315.26 K, 20000 kPa	0.1099 W/m/K
315.35 K, 10000 kPa	0.105 W/m/K
315.39 K, 5000 kPa	0.1023 W/m/K
315.48 K, 100 kPa	0.0996 W/m/K
315.71 K, 10000 kPa	0.1054 W/m/K
315.73 K, 5100 kPa	0.1027 W/m/K
315.76 K, 20000 kPa	0.1104 W/m/K
315.88 K, 100 kPa	0.0994 W/m/K
315.98 K, 30000 kPa	0.1144 W/m/K
316.26 K, 10000 kPa	0.105 W/m/K
334.99 K, 10100 kPa	0.0998 W/m/K
335.01 K, 5400 kPa	0.0959 W/m/K
335.11 K, 20000 kPa	0.1038 W/m/K
335.23 K, 100 kPa	0.0935 W/m/K
335.29 K, 29900 kPa	0.1093 W/m/K
335.32 K, 10100 kPa	0.0995 W/m/K
335.46 K, 100 kPa	0.0932 W/m/K
335.51 K, 30200 kPa	0.1094 W/m/K
335.68 K, 19700 kPa	0.1043 W/m/K
335.72 K, 30000 kPa	0.1096 W/m/K
335.84 K, 5000 kPa	0.096 W/m/K
335.84 K, 10100 kPa	0.0995 W/m/K
335.94 K, 100 kPa	0.0931 W/m/K
336.31 K, 20100 kPa	0.1042 W/m/K
336.37 K, 5200 kPa	0.0959 W/m/K
354.72 K, 29900 kPa	0.106 W/m/K and 0.1051 W/m/K
354.85 K, 19700 kPa	0.1006 W/m/K
354.97 K, 5000 kPa	0.0913 W/m/K
354.97 K, 19800 kPa	0.1 W/m/K
355.23 K, 10100 kPa	0.0944 W/m/K
355.29 K, 300 kPa	0.0865 W/m/K
355.33 K, 10100 kPa	0.0944 W/m/K
355.45 K, 5000 kPa	0.0916 W/m/K
355.47 K, 20100 kPa	0.1001 W/m/K
355.56 K, 5000 kPa	0.091 W/m/K
355.66 K, 300 kPa	0.0869 W/m/K
355.87 K, 10000 kPa	0.094 W/m/K
356.04 K, 300 kPa	0.0866 W/m/K
356.04 K, 29900 kPa	0.1056 W/m/K
374.75 K, 30000 kPa	0.1021 W/m/K
374.95 K, 29800 kPa	0.1021 W/m/K
375.12 K, 20000 kPa	0.0959 W/m/K
375.24 K, 400 kPa	0.0813 W/m/K
375.25 K, 10000 kPa	0.0893 W/m/K
375.4 K, 5100 kPa	0.0858 W/m/K
375.47 K, 400 kPa	0.0812 W/m/K
375.55 K, 30300 kPa	0.1026 W/m/K
375.57 K, 20000 kPa	0.0957 W/m/K
375.61 K, 10000 kPa	0.0889 W/m/K
375.75 K, 5100 kPa	0.0853 W/m/K
375.87 K, 400 kPa	0.0816 W/m/K
376.05 K, 20000 kPa	0.0955 W/m/K
376.23 K, 10000 kPa	0.089 W/m/K
376.26 K, 5100 kPa	0.0854 W/m/K
